Assay results taken from ChEMBL document CHEMBL4396912 (Eur J Med Chem, 2019).
Calls of active or inactive are those of the source. The rule behind the calls is not given here.

What was measured:
[1] = target: Insulin-degrading enzyme (Homo sapiens) (UniProt P14735); conditions: HepG2, 30 uM
[2] = target: Insulin-degrading enzyme (Homo sapiens) (UniProt P14735); test: Inhibition of human recombinant IDE expressed in Escherichia coli BL21 (DE3) cells using ATTO 655- Cys-Lys-Leu-Val-Phe-Phe-Ala-Glu-Asp-Trp as substrate at 100 uM preincubated for 10 mins followed by substrate addition and measured after 30 mins by spectrophotometric analysis relative to control
[3] = target: Insulin-degrading enzyme (Homo sapiens) (UniProt P14735); conditions: 2 mM
[4] = target: T1, Insulin-degrading enzyme (Homo sapiens, UniProt P14735); test: Inhibition of human recombinant IDE expressed in Escherichia coli BL21 (DE3) cells using ATTO 655- Cys-Lys-Leu-Val-Phe-Phe-Ala-Glu-Asp-Trp as substrate preincubated for 10 mins followed by substrate addition and measured after 30 mins by spectrophotometric analysis
T1 sequence (P14735 whole entry): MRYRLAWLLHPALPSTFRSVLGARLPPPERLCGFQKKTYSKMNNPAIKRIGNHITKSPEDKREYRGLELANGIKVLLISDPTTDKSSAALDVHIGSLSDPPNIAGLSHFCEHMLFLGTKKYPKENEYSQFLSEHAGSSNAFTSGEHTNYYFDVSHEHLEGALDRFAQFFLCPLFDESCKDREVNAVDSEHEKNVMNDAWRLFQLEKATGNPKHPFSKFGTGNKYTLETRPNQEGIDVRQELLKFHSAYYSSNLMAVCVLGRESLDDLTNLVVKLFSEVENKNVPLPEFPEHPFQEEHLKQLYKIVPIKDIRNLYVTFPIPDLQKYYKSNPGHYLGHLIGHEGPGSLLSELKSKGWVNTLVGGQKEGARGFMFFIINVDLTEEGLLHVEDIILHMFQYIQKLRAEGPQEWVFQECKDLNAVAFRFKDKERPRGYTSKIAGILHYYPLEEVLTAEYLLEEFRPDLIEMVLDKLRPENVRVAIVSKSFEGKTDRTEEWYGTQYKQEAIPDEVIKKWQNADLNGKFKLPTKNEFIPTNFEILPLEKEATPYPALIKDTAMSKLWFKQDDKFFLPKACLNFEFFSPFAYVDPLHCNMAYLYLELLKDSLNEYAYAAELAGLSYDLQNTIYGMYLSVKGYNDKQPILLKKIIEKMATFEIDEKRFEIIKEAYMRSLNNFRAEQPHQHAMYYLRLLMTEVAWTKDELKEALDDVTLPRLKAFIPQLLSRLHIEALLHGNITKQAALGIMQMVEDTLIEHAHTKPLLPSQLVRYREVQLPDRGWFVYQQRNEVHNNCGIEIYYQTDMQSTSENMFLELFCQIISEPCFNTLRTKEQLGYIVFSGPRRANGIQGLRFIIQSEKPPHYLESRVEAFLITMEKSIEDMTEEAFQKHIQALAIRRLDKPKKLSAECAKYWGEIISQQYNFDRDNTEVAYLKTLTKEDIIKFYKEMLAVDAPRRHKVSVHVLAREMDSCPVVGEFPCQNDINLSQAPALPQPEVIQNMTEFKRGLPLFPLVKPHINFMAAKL

[5] = target: Insulin-degrading enzyme (Homo sapiens) (UniProt P14735); test: Irreversible inhibition of human recombinant IDE expressed in Escherichia coli BL21 (DE3) cells using ATTO 655- Cys-Lys-Leu-Val-Phe-Phe-Ala-Glu-Asp-Trp as substrate preincubated for 30 mins followed by 100 fold compound dilution by spectrophotometric analysis
[6] = target: Insulin-degrading enzyme (Homo sapiens, UniProt P14735, C110L/C171S/C178A/C257V/C414L/C573N/C590S/C789S/C812A/C819A/C904S/C966N/C974A); test: biochemical
Chain of Insulin-degrading enzyme (Homo sapiens, UniProt P14735, C110L/C171S/C178A/C257V/C414L/C573N/C590S/C789S/C812A/C819A/C904S/C966N/C974A) (P14735 whole entry C110L/C171S/C178A/C257V/C414L/C573N/C590S/C789S/C812A/C819A/C904S/C966N/C974A): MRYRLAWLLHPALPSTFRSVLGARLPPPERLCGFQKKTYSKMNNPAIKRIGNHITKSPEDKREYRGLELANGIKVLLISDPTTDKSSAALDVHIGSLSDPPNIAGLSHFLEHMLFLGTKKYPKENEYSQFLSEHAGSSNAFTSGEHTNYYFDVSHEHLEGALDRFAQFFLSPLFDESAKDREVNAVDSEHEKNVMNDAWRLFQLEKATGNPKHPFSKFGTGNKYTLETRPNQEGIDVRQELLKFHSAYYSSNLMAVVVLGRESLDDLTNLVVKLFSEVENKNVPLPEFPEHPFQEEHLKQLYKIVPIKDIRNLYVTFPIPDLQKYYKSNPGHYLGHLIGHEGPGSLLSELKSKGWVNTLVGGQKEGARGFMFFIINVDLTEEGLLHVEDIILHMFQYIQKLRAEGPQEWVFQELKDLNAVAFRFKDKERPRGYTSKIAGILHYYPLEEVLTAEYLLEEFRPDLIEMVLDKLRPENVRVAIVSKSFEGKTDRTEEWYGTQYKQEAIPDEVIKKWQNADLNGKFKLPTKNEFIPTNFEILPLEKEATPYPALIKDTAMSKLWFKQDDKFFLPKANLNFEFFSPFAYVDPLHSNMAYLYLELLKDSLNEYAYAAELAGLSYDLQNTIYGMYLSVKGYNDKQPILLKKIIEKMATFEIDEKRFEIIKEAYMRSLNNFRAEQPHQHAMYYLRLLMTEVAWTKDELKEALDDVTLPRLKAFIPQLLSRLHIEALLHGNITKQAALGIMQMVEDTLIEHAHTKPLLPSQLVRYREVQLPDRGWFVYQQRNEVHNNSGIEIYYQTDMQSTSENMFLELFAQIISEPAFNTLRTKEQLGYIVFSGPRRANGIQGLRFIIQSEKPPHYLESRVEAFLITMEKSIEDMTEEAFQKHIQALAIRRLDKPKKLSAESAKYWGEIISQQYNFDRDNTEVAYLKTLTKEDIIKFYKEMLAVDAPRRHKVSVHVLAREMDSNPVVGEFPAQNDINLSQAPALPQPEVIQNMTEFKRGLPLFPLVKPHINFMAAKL

O=c1c2ccccc2[se]n1-c1ccccc1
deltaT [1]: 1.3 °C

COc1ccc2[nH]c([S+]([O-])Cc3ncc(C)c(OC)c3C)nc2n1 (configuration not stated)
inhibition [2]: 35%

O=C(O)CN(CCN(CC(=O)O)CC(=O)O)CC(=O)O
inhibition [3]: 100%

COc1ccc2[nH]c([S+]([O-])Cc3ncc(C)c(OC)c3C)nc2c1 (configuration not stated)
inhibition [2]: 41%

COCCCOc1ccnc(C[S+]([O-])c2nc3ccccc3[nH]2)c1C (configuration not stated) [RABEPRAZOLE]
inhibition [2]: 98%
IC50 [4]: 11 µM

CCN1C(=O)C=CC1=O
inhibition [5]: Active

Cc1c(OCC(F)(F)F)ccnc1C[S+]([O-])c1nc2ccccc2[nH]1 (configuration not stated)
inhibition [2]: 38%

COc1ccnc(C[S+]([O-])c2nc3cc(OC(F)F)ccc3[nH]2)c1OC (configuration not stated)
inhibition [2]: 0%

O=C(C[C@@H](Cc1ccc2ccccc2c1)n1cc(CNC(=O)c2ccc(F)cc2)nn1)NO
deltaT [1]: 6.4 °C
IC50 [6]: 0.33 µM

O=c1c(O)c(-c2cc(O)c(O)c(O)c2)oc2cc(O)cc(O)c12 [MYRICETIN]
IC50 [4]: 100 µM
